These results are taken from article PMC11358582, “Discovery of a potential bladder cancer inhibitor CHNQD-01281 by regulating EGFR and promoting infiltration of cytotoxic T cells” (Marine Life Science & Technology, 2024).

Molecules are shown by their SMILES. Converted amounts (≈) assume the structure as drawn. Bounds are passed on as bounds.

Series [1] relates to human hepatocyte cell line L-02. The series can be described thus: MTT cell proliferation assay. It counts as cell-based. The note with it: L-02, MTT. On the procedure:
Human tumor cell lines Eca-109, BEL-7402, BxPC-3, HCT-116, HT-29, T24, HCT-8, SGC-7901, DLD-1, TE-1, BT-549, MGC-803 and human hepatocyte cell line L-02 were cultured in Roswell Park Memorial Institute (RPMI) 1640. HuH-7 and SW-480 were cultured in Dulbecco’s modified Eagle’s medium (DMEM). J82, HepG2, Hela, U87 were cultured in Minimum Essential Medium (MEM). Murine bladder cancer cell line, MB49, was cultured in DMEM. The above-mentioned culture medium was provided by GIBCO (Grand Island, USA), contained 10% fetal bovine serum (PAN, Germany), 10 mg/mL of streptomycin, and 10 kU/mL penicillin (Beyotime, China).
Cells were seeded in 96-well plates and incubated with indicated concentrations of CHNQD-01281 for indicated periods. Next, medium was discarded and MTT (5 mg/mL) was added to each well. The cells were incubated at 37 °C for another 4 h. After that, supernatant was discarded, and DMSO was added and incubated at 37 °C for 15 min. Finally, absorbance was measured at 570 nm (Molecular Devices, USA).
Thus, the bladder cancer cell lines J82 and T24 were further investigated and treated by CHNQD-01281 under gradient concentrations (0.031−1.00 µmol/L) and times (24, 72 and 120 h) to measure proliferation activities (Fig. 2B). However, the inhibition of T24 or J82 cell lines by CHNQD-01281 was less than 50% even at the highest concentration of 1 µmol/L for 24 h. […] Therefore, CHNQD-01281 has a higher selectivity index compared to BFA.
In general terms: Tetrazolium dyes change colour on reduction, which living cells bring about.

The nature of series [2]: Solubility in selected aqueous solutions. It counts as physicochemical. The text has this: The problem of poor water solubility is one of the factors that seriously restricts the preclinical application of BFA. Therefore, from the perspective of pharmaceutics, it is of great application value to explore safe and effective methods to improve its solubility. Based on the previous screening of commonly used solvents, solubilizers and co-solvents for BFA and its derivatives, we explored the solubility of CHNQD-01281, which was compared and assessed in selected aqueous solutions (Table 1). Saline or PBS were commonly used solvents, but the solubility of BFA or CHNQD-01281 was less than 1 mg/mL when used alone. No significant improvement in solubility was observed after the addition of DMSO or PEG400. […] More importantly, the solution system of CHNQD-01281 with saline/DMSO/solutol HS-15 (85/5/10) can fully meet the needs of follow-up experiments in vivo, such as pharmacodynamics, pharmacokinetics and safety evaluation.

In series [3] the test system is T24 cell line. The series is described as follows: Wound healing assay (migration). It counts as cell-based, human. The note with it: T24, 0.16 µmol/L, 24 h. The procedure: (§1) Fig. 3 Effects of CHNQD-01281 on colony formation and migration of T24 and J82 cell lines. A T24 and J82 cell lines were cultured for 12 days with varying concentrations of CHNQD-01281 (0−0.16 μmol/L) and colonies were fixed and dyed with 0.1% crystal violet. B The relative colony numbers are shown. C Scratches of T24 and J82 cell colonies were generated with pipette tips (200 μL). After 24 h of incubation with 0−0.16 μmol/L CHNQD-01281, representative images were captured. D Histograms display the healed rate. Data are represented as the mean ± SD of three independent experiments. **P < 0.01, ***P < 0.001 and ****P < 0.0001 versus the 0 μmol/L group
(§2) Metastasis and invasiveness are important indications for progression of bladder cancer. […] At the concentration of 0.16 µmol/L, the healed rate of T24 and J82 was 21% and 29%, respectively.

Series [4] relates to J82 cell line. The series is described as follows: Wound healing assay (migration). It counts as cell-based, human. The settings on record: J82, 0.16 µmol/L, 24 h. On the procedure: as §1, §2

`C[C@H]1CCC/C=C/[C@@H]2C[C@H](O)C[C@H]2[C@H](OC(=O)/C=C/c2cccnc2)/C=C/C(=O)O1` [CHNQD-01281, Brefeldin A 4-O-3-(pyridin-3-yl) acrylate]: the IC90 (commonly the concentration needed for an effect of 90%) in series [1] was 2520 nM. The IC50 – broadly, the concentration needed to halve the response being measured – in series [1] (72 h) turned out to be 1160 nM. For the same compound, the solubility (commonly the dissolved amount per volume that the medium holds) is under 1000 µg/mL in series [2] (Saline or PBS used alone); under 1000 µg/mL in series [2] (aqueous with cosolvent or surfactant or cyclodextrin, No. 2: Saline/DMSO 95/5, pH 7.4, 25 °C); under 1000 µg/mL in series [2] (aqueous with cosolvent or surfactant or cyclodextrin, No. 3: PBS/DMSO 95/5, pH 7.4, 25 °C); under 1000 µg/mL in series [2] (aqueous with cosolvent or surfactant or cyclodextrin, No. 4: Saline/PEG400 95/5, pH 7.4, 25 °C); under 1000 µg/mL in series [2] (aqueous with cosolvent or surfactant or cyclodextrin, No. 5: Saline/PEG400 80/20, pH 7.4, 25 °C); 12000 to 15000 µg/mL (≈ 29200 to 36500 µM) in series [2] (aqueous with cosolvent or surfactant or cyclodextrin, No. 6: Saline/DMSO/solutol HS-15 85/5/10, pH 7.4, 25 °C). Moreover, the solubility in series [2] (aqueous with cosolvent or surfactant or cyclodextrin, No. 7: Saline/solutol HS-15 95/5, pH 7.4, 25 °C) is under 1000 µg/mL; in series [2] (aqueous with cosolvent or surfactant or cyclodextrin, No. 8: Saline/solutol HS-15 90/10, pH 7.4, 25 °C) it was under 1000 µg/mL; in series [2] (saline or isotonic, No. 1: Saline (0.9% NaCl) 100, pH 7.4, 25 °C) it was under 1000 µg/mL. Further, the “improvement of solubility versus BFA” value in series [2] (saline with 5% DMSO and 10% solutol HS-15) is given as “approximately tenfold”. Besides, the healed rate was 21% in series [3] and 29% in series [4].
